This is an account of results in paper PMC5590075, “Synthesis, Antimicrobial, and Antioxidant Activities of Chalcogen-Containing Nitrone Derivatives from (R)-citronellal” (Medicines, 2017).

The assay concerns Salmonella Typhimurium ATCC 14028. The assay is described as follows: MIC and MBC, macro dilution tube method. Format: cell-based. Conditions: S. Typhimurium; for MBC: 10^5 CFU.mL^−1; for MIC: 10^5 CFU.mL^−1, 24 h. The source says: To evaluate the antimicrobial potential of the synthesized compounds, the following reference strains of bacteria, that are economically important in foods, were employed: Gram-positive Listeria monocytogenes ATCC 7644, Staphylococcus aureus ATCC 25923, and Bacillus cereus ATCC 11778; Gram-negative Salmonella Typhimurium ATCC 14028, Escherichia coli O157: H7 NCTC 12900 and the clinically important Pseudomonas aeruginosa ATCC 15442.
The antimicrobial activity assay using the disk diffusion test was realized using the methodology that is recommended by the Clinical Laboratory Standards Institute (CLSI). The determination of the minimum inhibitory concentration (MIC) and minimum bactericidal concentration (MBC) was performed using the macro dilution tube method, in accordance with Rota et al., with modifications. Details of these assays are provided in the Supplemental Material. […]
2.2. Determination of the minimum inhibitory concentration (MIC) and minimum bactericidal concentration
The MIC was determined using the macro dilution tube method, in accordance with Rota et al.
[5], with modifications. The tested concentrations were 20, 18, 15, 12, 10, 7 and 5 μL.mL‐1 of each compound. In a tube with 1 mL of MH broth, was inoculated 105 UFC.mL‐1, the compound in a predetermined concentration and, to facilitate the solubility, 2 drops of TWEEN 80. The mixture was incubated at 37 °C for 24 h under stirring (150 rpm). As the positive control, MH broth and inoculum concentration in 105 UFC.mL‐1 and as the negative control MH, the inoculum concentration in 105 UFC∙mL‐1 and streptomycin (10 μg) were used. MIC was defined as the lowest concentration of […]
After 24 h, tubes with no visible growth were seeded in a […] TSA‐YE tube and incubated at 37 °C for 24 h. The MBC is the lowest concentration of compound where 99.9% of the initially inoculated cells were killed. […]
2.4. Radical Scavenging Activity […]
The ABTS radical scavenging activity was determined according to the method described by Erel. Different concentrations of compounds 5a–d and 10 (10–500 μ M) were mixed with the ABTS+ solution, and the decrease in the absorbance at 734 nm was recorded.

Where only a bound is given, the exact number is not on record here.

`CC(C)=CCCC(C)(C/C=[N+](\C)[O-])Sc1ccccc1` (stereo not shown) [5c, (E)-N,3,7-trimethyl-3-(phenylthio)oct-6-en-1-imine oxide] came in with an MBC of over 0.69 mM.mL^−1 and an MIC of over 0.69 mM.mL^−1.
In turn, `CC(C)=CCC[C@@H](C)C(/C=N/O)[Se]c1ccccc1` (stereo partly drawn) [compound 10, (3R,E)-3,7-dimethyl-2-(phenylselanyl)oct-6-enal oxime] registered an MBC of over 0.70 mM.mL^−1 and an MIC of over 0.70 mM.mL^−1.
